Results on 36 compounds are retold here after patent US7868037B2 (PTC Therapeutics, Inc., priority 2004, dated 2011).

In general, IC50 refers to the midpoint of a concentration-inhibition curve. By melting point is commonly meant the temperature of the solid-liquid transition.

Data set [1] deals with HCV replicon. As to the kind of experiment: microbe, parasite or virus in culture. The class given is cell-based, hepatitis C virus. As to conditions: Hepatitis C virus, read-out: Replicon IC50 μM. For orientation: A replicon is a self-replicating genome or part of one, used to study replication in cells.

Take `CCn1cc(-c2ccccc2)c2cc([N+](=O)[O-])ccc21` [Compound 41, N-ethyl-3-phenyl-5-nitroindole]: the melting point was 155 to 175 °C. Also, the IC50 in data set [1] was more than 2 µM.

The compound `CCOC(=O)c1c(C)n(-c2ccc(OC)cc2)c2ccc(OC(F)F)cc12` [Compound 49, ethyl 5-difluoromethoxy-1-(4-methoxyphenyl)-2-methyl-1H-indole-3-carboxylate] yielded a melting point of 89 to 90 °C. In data set [1], the IC50 is more than 2 µM.

Consider `CCc1nnc(-c2cn(CC)c3cc(OC)ccc23)o1` [Compound 54, 1-ethyl-6-methoxy-3-(5-ethyl-[1,3,4]oxadiazol-2-yl)-1H-indole], for which the melting point was 99 to 101 °C. Besides, the IC50 in data set [1] is more than 2 µM.

In the case of `CCn1c(-c2ccc(N)cc2)c(C#N)c2ccc(OC)cc21` [Compound 55, 2-(4-aminophenyl)-1-ethyl-6-methoxy-1H-indole-3-carbonitrile], the melting point was in the range of 183 to 185 °C. For the same compound, the IC50 in data set [1] is more than 2 µM.

`CCn1cc(-c2ccno2)c2ccc(OC)cc21` [Compound 58, 1-ethyl-3-isoxazol-5-yl-6-methoxy-1H-indole]: the melting point was 76 to 79 °C. For the same compound, the IC50 in data set [1] is more than 2 µM.

On to `CCn1cc(-c2ccn[nH]2)c2ccc(OC)cc21` [Compound 59, 1-ethyl-6-methoxy-3-(2H-pyrazol-3-yl)-1H-indole], for which the melting point is 81 to 85 °C. In data set [1], the IC50 was more than 2 µM.

For the compound `CCn1c(C#Cc2ccc(F)cc2)c(C#N)c2ccc(OC)cc21` [Compound 67, 1-ethyl-2-(4-fluorophenylethynyl)-6-methoxy-1H-indole-3-carbonitrile], the melting point lay in the range of 132 to 136 °C. The IC50 in data set [1] lay within 0.5 to 2 µM.

The compound `CCn1cc(-c2cnco2)c2ccc(C(=O)OC)cc21` [Compound 72, methyl 1-ethyl-3-oxazol-5-yl-1H-indole-6-carboxylate] returned a melting point of 144 to 149 °C. In addition, in data set [1], the IC50 was more than 2 µM.

On to `CCn1cc(-c2ncco2)c2ccc(C(=O)OC)cc21` [Compound 75, methyl 1-ethyl-3-oxazol-2-yl-1H-indole-6-carboxylate], for which the melting point lay in the range of 118 to 123 °C. Also, the IC50 in data set [1] was more than 2 µM.

Take `CCn1c(-c2ccc(N3CCCS3(=O)=O)cc2)c(C#N)c2ccc(OC)cc21` [Compound 84, 2-[4-(1,1-dioxo-1λ^6-isothiazolidin-2-yl)phenyl]-1-ethyl-6-methoxy-1H-indole-3-carbonitrile]: the melting point fell in the range of 232 to 237 °C. The IC50 in data set [1] was less than 0.5 µM.

Turning to `CCCOC(=O)Nc1ccc2c(C#N)cn(-c3ccc(OC)cc3)c2c1` [Compound 97, [3-Cyano-1-(4-methoxyphenyl)-1H-indol-6-yl]-carbamic acid propyl ester], the melting point was 164 to 167 °C. Moreover, the IC50 in data set [1] was more than 2 µM.

On to `CCn1c(COc2ccccc2)c(C#N)c2ccc(OC)cc21` [Compound 99, 1-ethyl-6-methoxy-2-phenoxymethyl-1H-indole-3-carbonitrile], for which the melting point was in the range of 123.4 to 123.8 °C. In addition, the IC50 in data set [1] was more than 2 µM.

`CCn1cc(-c2cc(-c3ccc(OC)cc3)on2)c2ccc(OC)cc21` [Compound 116, 1-ethyl-6-methoxy-3-[5-(4-methoxyphenyl)-isoxazol-3-yl]-1H-indole] returned a melting point of 116 to 118 °C. Further, the IC50 in data set [1] is more than 2 µM.

`CCOC(=O)Nc1ccc(-c2c(C#N)c3ccc(OC)cc3n2CC)cc1` [Compound 121, [4-(3-cyano-1-ethyl-6-methoxy-1H-indol-2-yl)-phenyl]-carbamic acid ethyl ester] gave a melting point of 167 to 169 °C. Besides, the IC50 in data set [1] lay in the range of 0.5 to 2 µM.

In turn, `CCn1c(-c2ccc(NC(C)=O)cc2)c(C#N)c2ccc(OC)cc21` [Compound 128, N-[4-(3-Cyano-1-ethyl-6-methoxy-1H-indol-2-yl)-phenyl]-acetamide] gave a melting point of 218 to 220 °C. In data set [1], the IC50 is more than 2 µM.

Compound `CCn1c(-c2ccc(NS(C)(=O)=O)cc2)c(C#N)c2ccc(OC)cc21` [Compound 129, N-[4-(3-Cyano-1-ethyl-6-methoxy-1H-indol-2-yl)-phenyl]-methanesulfonamide] returned a melting point of 188 to 190 °C. In addition, the IC50 in data set [1] lay in the range of 0.5 to 2 µM.

Take `CCn1c(C#Cc2ccc(NS(C)(=O)=O)cc2)c(C#N)c2ccc(OC)cc21` [Compound 130, N-[4-(3-cyano-1-ethyl-6-methoxy-1H-indol-2-ylethynyl)-phenyl]-methanesulfonamide]: the melting point lay in the range of 227 to 233 °C. For the same compound, the IC50 in data set [1] is less than 0.5 µM.

With `CCn1c(C#Cc2ccc(NC(C)=O)cc2)c(C#N)c2ccc(OC)cc21` [Compound 138, N-[4-(3-cyano-1-ethyl-6-methoxy-1H-indol-2-ylethynyl)-phenyl]-acetamide], the melting point lay within 235 to 239 °C. Further, the IC50 in data set [1] lay within 0.5 to 2 µM.

For the compound `CCn1cc(C#N)c2cc(-c3ccsc3)ccc21` [Compound 141, 1-ethyl-5-thiophen-3-yl-1H-indole-3-carbonitrile], the melting point was 145 to 146 °C. Besides, the IC50 in data set [1] is more than 2 µM.

`CCn1c(C#Cc2ccc(NC(=O)NCCCl)cc2)c(C#N)c2ccc(OC)cc21` [Compound 156, 1-(2-chloroethyl)-3-[4-(3-cyano-1-ethyl-6-methoxy-1H-indol-2-ylethynyl)-phenyl]urea] registered a melting point of 205 to 209 °C. In addition, the IC50 in data set [1] lay within 0.5 to 2 µM.

The compound `CCn1c(C#Cc2ccc(N(C)S(=O)(=O)CC)cc2)c(C#N)c2ccc(OC)cc21` [Compound 157] gave a melting point of 149 to 153 °C. In data set [1], the IC50 was in the range of 0.5 to 2 µM.

`CCn1c(C#Cc2ccc(N3CCNC3=O)cc2)c(C#N)c2ccc(OC)cc21` [Compound 166, 1-ethyl-6-methoxy-2-[4-(2-oxo-imidazolidin-1-yl)-phenylethynyl]-1H-indole-3-carbonitrile] came in with a melting point of 236 to 240 °C. Also, the IC50 in data set [1] was less than 0.5 µM.

Compound `CCn1c(-c2ccc(N(C)S(C)(=O)=O)cc2)c(C#N)c2ccc(OC)cc21` [Compound 180, N-[4-(3-cyano-1-ethyl-6-methoxy-1H-indol-2-yl)-phenyl]-N-methyl methanesulfonamide] had a melting point of 170 to 171 °C. For the same compound, in data set [1], the IC50 was in the range of 0.5 to 2 µM.

`CCn1c(-c2ccc(NS(C)(=O)=O)cc2)c(C#N)c2ccc(O)cc21` [Compound 189, N-[4-(3-cyano-1-ethyl-6-hydroxy-1H-indol-2-yl)-phenyl]-methanesulfonamide]: the melting point lay in the range of 252 to 253 °C. Also, the IC50 in data set [1] was more than 2 µM.

`CCn1c(C#Cc2ccc(NC(=O)C3CC3)cc2)c(C#N)c2ccc(O)cc21` [Compound 194, cyclopropanecarboxylic acid [4-(3-cyano-1-ethyl-6-hydroxy-1H-indol-2-ylethynyl)-phenyl]amide]: the melting point lay in the range of 278 to 284 °C. Moreover, in data set [1], the IC50 fell in the range of 0.5 to 2 µM.

For the compound `CCNC(=O)Nc1cccc(C#Cc2c(C#N)c3ccc(OC)cc3n2CC)c1` [Compound 220, 1-[3-(3-cyano-1-ethyl-6-methoxy-1H-indol-2-ylethynyl)phenyl]-3-ethyl urea], the melting point was 219 to 223 °C. The IC50 in data set [1] is 0.5 to 2 µM.

Turning to `COC(=O)c1cccc(-c2noc(-c3[nH]c4cc(OC)ccc4c3C#N)n2)c1` [Compound 226, methyl 3-[5-(3-cyano-6-methoxy-1H-indol-2-yl)-[1,2,4]oxadiazol-3-yl]benzoate], the melting point is 294 to 295 °C. In addition, the IC50 in data set [1] was more than 2 µM.

For the compound `CCn1c(C#Cc2ccc(NC=O)cc2)c(C#N)c2ccc(OC)cc21` [Compound 241, N-[4-(3-cyano-1-ethyl-6-methoxy-1H-indol-2-ylethynyl)-phenyl]-formamide], the melting point lay within 184 to 188 °C. In data set [1], the IC50 is more than 2 µM.

With `CCn1c(-c2ccc(C(=O)N3CCOCC3)cc2)c(C#N)c2cc(OC)ccc21` [Compound 245, 1-ethyl-5-methoxy-2-[4-(morpholine-4-carbonyl)-phenyl]-1H-indole-3-carbonitrile], the melting point was 192 to 195 °C. Further, the IC50 in data set [1] was more than 2 µM.

`CCn1c(-c2ccc(OCCOC)cc2)c(C#N)c2ccc(OC)cc21` [Compound 248, 1-ethyl-6-methoxy-2-[4-(2-methoxyethoxy)-phenyl]-1H-indole-3-carbonitrile] registered a melting point of 117 to 121 °C. In addition, in data set [1], the IC50 lay within 0.5 to 2 µM.

`CCn1c(-c2ccc(OCCBr)cc2)c(C#N)c2ccc(OC)cc21` [Compound 253, 2-[4-(2-bromoethoxy)-phenyl]-1-ethyl-6-methoxy-1H-indole-3-carbonitrile]: the melting point lay in the range of 121 to 125 °C. The IC50 in data set [1] was in the range of 0.5 to 2 µM.

On to `CCn1c(-c2ccc(OCCN3CCOCC3)cc2)c(C#N)c2ccc(OC)cc21` [Compound 261, 1-ethyl-6-methoxy-2-[4-(2-morpholin-4-yl-ethoxy)-phenyl]-1H-indole-3-carbonitrile], for which the melting point fell in the range of 138 to 143 °C. Moreover, the IC50 in data set [1] lay in the range of 0.5 to 2 µM.

Take `CCn1c(-c2ccc(S(C)(=O)=O)cc2)c(C#N)c2ccc(OC)cc21` [Compound 265, 1-ethyl-2-(4-methanesulfonylphenyl)-6-methoxy-1H-indole-3-carbonitrile]: the melting point is 204 to 206 °C. For the same compound, the IC50 in data set [1] is more than 2 µM.

For the compound `CCn1c(-c2ccc(OCCN=[N+]=[N-])cc2)c(C#N)c2ccc(OC)cc21` [Compound 266, 2-[4-(2-azidoethoxy)phenyl]-1-ethyl-6-methoxy-1H-indole-3-carbonitrile], the melting point lay in the range of 96 to 99 °C. Further, the IC50 in data set [1] is 0.5 to 2 µM.

On to `CCn1c(-c2ccc(OCCN)cc2)c(C#N)c2ccc(OC)cc21` [Compound 267, 2-[4-(2-aminoethoxy)phenyl]-1-ethyl-6-methoxy-1H-indole-3-carbonitrile], for which the melting point was in the range of 106 to 112 °C. Further, the IC50 in data set [1] is more than 2 µM.

As to `CCn1c(-c2ccc(OCCNS(C)(=O)=O)cc2)c(C#N)c2ccc(OC)cc21` [Compound 268, N-{2-[4-(3-cyano-1-ethyl-6-methoxy-1H-indol-2-yl)-phenoxy]-ethyl}methanesulfonamide], the melting point was in the range of 137 to 143 °C. Further, in data set [1], the IC50 is 0.5 to 2 µM.
